Measurements taken from US12528812B2 (Genentech, Inc., priority 2020, dated 2026).
Read-outs that look alike come from different tables or passages of the source.

Experiments:
[1] = target: T1, recombinant human JAK1 kinase domain protein (Residues 854-1154) (Homo sapiens, UniProt P23458); test: JAK1 biochemical assay (LabChip mobility shift, Ki); conditions: read-out: Biochem JAK1 Ki
T1 construct: human JAK1 kinase domain protein (Residues 854-1154); purchased Proteros Biostructures GmbH (Martinsried, Germany); host or cells: insect cells

[2] = tested on: IL-13-stimulated STAT6 phosphorylation in human lung bronchial epithelial BEAS-2B cell line; test: P-STAT6 BEAS-2B + IL-13 cell assay; type: cell-based; conditions: BEAS2B cells, IL13 stimulation, read-out: Cellular JAK1 PSTAT6 BEAS2B + IL13
Description: In order to study the effect of JAK1 inhibitors in a cell line that is relevant to the cell biology of human asthma, an IL-13-stimulated STAT6 phosphorylation assay in the human lung bronchial epithelial BEAS-2B cell line was developed.
BEAS-2B cells (ATCC′ CRL-9609™) were grown in Bronchial Epithelial Growth Medium (BEGM) (Lonza Catalog No. CC-3170; Walkersville, MD; or PromoCell Catalog No. C-21060; Heidelberg, Germany). Test compound stock solutions (0.5 mM in DMSO) were serially diluted 1:2 in DMSO to generate a 10-point concentration curve (at 500× test concentration), which was further diluted by a 50-fold dilution step in BEGM to generate a 10× concentration curve (in 2% DMSO). Cells were plated at 100,000 cells/well in 200 μL of BEGM in 96-well plates and incubated for 48 hours at 37° C. in a humidified incubator. Medium was aspirated from the cells and replaced with 70 μL of fresh BEGM. Diluted test compound (10 μL; or 2% DMSO in assay medium) was added to the cells, and the plates were incubated for 1 hour at 37° C. in a humidified incubator. Twenty μL of 250 ng/mL human recombinant IL-13 (Bio Techne Catalog No. 213-ILB) was then added to the cells and incubated for 15 minutes at 37° C. Medium was aspirated from the cells and 60 μL of ice-cold 1× cell lysis buffer (Cell Signaling Technologies; Catalog No. 9803S) containing 1 mM PMSF was added to the cells. Assay plates were incubated at −80° C. for at least 1 hour. P-STAT6 was measured by coating GAR plates (MSD; Catalog No. L45RA-1) with rabbit anti-human total STAT6 antibody (Cell Signaling Technologies; Catalog No. 9362S), incubating the cell lysates in the coated plates overnight at 4° C., and then detecting with mouse anti-phospho-STAT6 (Tyr641) Clone 16E12 antibody (Millipore; Catalog No. 05-590, custom labeled by MSD with SULFO-tag) using standard MSD plate processing, washing, and detection protocols. Plates were read on the MESO SECTOR 5600.
Data analysis was performed by subtracting negative control values from all wells and determining percent of control using the positive control values; the IC50 was determined with a four-parameter logistic fit model as shown in Equation 4.

[3] = target: Recombinant human JAK2 kinase domain protein (Residues 812-1132) (Homo sapiens, UniProt O60674); test: JAK2 biochemical assay (LabChip mobility shift, Ki); conditions: Biochem JAK2 Ki
Chain of Recombinant human JAK2 kinase domain protein (Residues 812-1132) (O60674 812-1132): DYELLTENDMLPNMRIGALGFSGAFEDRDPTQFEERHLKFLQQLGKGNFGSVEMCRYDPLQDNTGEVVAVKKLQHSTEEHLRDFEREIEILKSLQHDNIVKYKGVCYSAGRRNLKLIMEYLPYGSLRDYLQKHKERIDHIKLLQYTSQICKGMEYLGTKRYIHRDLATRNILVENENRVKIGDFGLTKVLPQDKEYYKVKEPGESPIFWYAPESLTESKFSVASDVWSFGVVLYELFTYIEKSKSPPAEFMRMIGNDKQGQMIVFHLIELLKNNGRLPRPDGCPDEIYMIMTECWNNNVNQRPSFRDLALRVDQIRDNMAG
Description: The in vitro biochemical assays quantify JAK-catalyzed phosphorylation of a synthetic peptide, as detected using a LabChip® EZ Reader II microfluidic mobility shift instrument (PerkinElmer; Waltham, MA). […] Y-1B is fluorescently labeled on the N-terminus with 5-FAM (5-carboxyfluorescein) and contains a single tyrosine residue (Y) that can be phosphorylated by JAK activity. The substrate peptide stock is prepared in DMSO at 5 mM. […] In each titration experiment, test compound was tested in duplicate at each of the twelve concentrations. Blank reactions contained ATP, peptide, and DMSO, but no JAK or test compound, whereas uninhibited control reactions contained ATP, peptide, JAK, and DMSO, but no test compound.
Peptide plus ATP mixture (24 μL) was added to 1 μL of test compound in DMSO (or DMSO alone). The reactions were initiated by adding 25 μL of JAK enzyme to the inhibitor/peptide/ATP mixture before thoroughly mixing the resultant solution. Reactions were incubated at room temperature (22° C.-23° C.) in a final volume of 50 μL per well in 384-well plates. After a 30-minute incubation, the reactions were stopped by adding 25 μL of 150 mM ethylenediaminetetraacetic acid in 100 mM HEPES buffer (pH 7.2) containing 0.015% Brij 35 to each well.
In each reaction, the residual Y-1B substrate and the phospho-peptide product generated were separated using the EZ Reader II instrument. Electrophoretic separation of molecules of product from molecules of substrate was achieved using downstream and upstream voltages of −500 and −2600 V, respectively, at an operating pressure of −1.3 psi.
The extent (or percent) of conversion of substrate to product was calculated from the corresponding peak heights in the electropherogram using HTS Well Analyzer software, Version 5.2 (PerkinElmer), and the following equation (Equation 1): conversion=[P÷(S+P)]×100 Equation 1% where S and P represent the peak heights of the substrate and product, respectively. After any baseline signal from blank wells containing no JAK was subtracted from the signal of all test wells, the % conversion data were converted to fractional activity as shown in Equation 2, where vi and vo are the % conversion in the presence and absence of test compound, respectively.

T1 sequence (P23458 854-1154): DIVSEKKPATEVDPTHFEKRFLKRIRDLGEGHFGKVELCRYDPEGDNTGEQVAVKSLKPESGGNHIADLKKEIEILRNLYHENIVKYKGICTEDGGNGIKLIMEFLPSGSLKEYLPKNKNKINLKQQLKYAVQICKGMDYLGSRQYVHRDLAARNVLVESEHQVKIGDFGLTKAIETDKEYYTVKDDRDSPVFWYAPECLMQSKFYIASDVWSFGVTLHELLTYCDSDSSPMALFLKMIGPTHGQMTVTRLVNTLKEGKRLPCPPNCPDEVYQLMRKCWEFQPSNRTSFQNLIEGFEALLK

Ki [1] [nM]	Ki [3] [nM]	SMILES	IC50 ([2]; Homo sapiens, BEAS-2B) [nM]	IC50 [2] [nM]
0.93	0.56	CN1CCOC(c2cccc(Oc3ccc(OC(F)F)c(-c4nn(C)cc4NC(=O)c4cnn5cccnc45)c3)c2)C1 (stereo not drawn) [Example 30, N-[3-[2-(difluoromethoxy)-5-[3-(4-methylmorpholin-2-yl)phenoxy]phenyl]-1-methyl-pyrazol-4-yl]pyrazolo[1,5-a]pyrimidine-3-carboxamide]	40	–
1.7	0.42	Cn1cc(NC(=O)c2cnn3cccnc23)c(-c2cc(Oc3ccc4c(c3)CCNC4)ccc2OC(F)F)n1 [Example 63, N-[3-[2-(difluoromethoxy)-5-(1,2,3,4-tetrahydroisoquinolin-6-yloxy)phenyl]-1-methyl-pyrazol-4-yl]pyrazolo[1,5-a]pyrimidine-3-carboxamide]	47	–
0.69	0.36	CN1CC(O)(c2cc(Oc3ccc(OC(F)F)c(-c4nn(C)cc4NC(=O)c4cnn5cccnc45)c3)cc(C3CC3)c2)C1 [Example 110, N-[3-[5-[3-cyclopropyl-5-(3-hydroxy-l-methyl-azetidin-3-yl)phenoxy]-2-(difluoromethoxy)phenyl]-1-methyl-pyrazol-4-yl]pyrazolo[1,5-a]pyrimidine-3-carboxamide]	30	–
0.91	0.74	Cn1cc(NC(=O)c2cnn3cccnc23)c(-c2cc(Oc3cccc(CN[C@H]4C[C@H](O)C4)c3)ccc2OC(F)F)n1 [Example 72, N-[3-[2-(difluoromethoxy)-5-[3-[[(3-hydroxycyclobutyl)amino]methyl]phenoxy]phenyl]-1-methyl-pyrazol-4-yl]pyrazolo[1,5-a]pyrimidine-3-carboxamide]	62	–
1.7	1.1	Cn1cc(NC(=O)c2cnn3cccnc23)c(-c2cc(Oc3cccc(CN4CCO[C@H](CO)C4)c3)ccc2OC(F)F)n1 (stereo in doubt) [Example 94, N-[3-[2-(difluoromethoxy)-5-[3-[[rac-(2R)-2-(hydroxymethyl)morpholin-4-yl]methyl]phenoxy]phenyl]-1-methyl-pyrazol-4-yl]pyrazolo[1,5-a]pyrimidine-3-carboxamide]	40	–
0.76	0.64	Cn1cc(NC(=O)c2cnn3cccnc23)c(-c2cc(Oc3cccc(CNC(CO)CO)c3)ccc2OC(F)F)n1 [Example 48, N-[3-[2-(difluoromethoxy)-5-[3-[[[2-hydroxy-1-(hydroxymethyl)ethyl]amino]methyl]phenoxy]phenyl]-1-methyl-pyrazol-4-yl]pyrazolo[1,5-a]pyrimidine-3-carboxamide]	86	–
0.31	0.28	O=C(Nc1cn(C2COC2)nc1-c1cc(Oc2ccc3c(c2)CNCC3)ccc1OC(F)F)c1cnn2cccnc12 [Example 157, N-[3-[2-(difluoromethoxy)-5-(1,2,3,4-tetrahydroisoquinolin-7-yloxy)phenyl]-1-(oxetan-3-yl)pyrazol-4-yl]pyrazolo[1,5-a]pyrimidine-3-carboxamide]	28	–
0.52	0.56	Cn1cc(NC(=O)c2cnn3cccnc23)c(-c2cc(Oc3cnn(CC4(O)CNC4)c3)ccc2OC(F)F)n1 [Example 122, N-[3-[2-(difluoromethoxy)-5-[1-[(3-hydroxyazetidin-3-yl)methyl]pyrazol-4-yl]oxy-phenyl]-1-methyl-pyrazol-4-yl]pyrazolo[1,5-a]pyrimidine-3-carboxamide]	390	–
0.64	0.39	CN(C)C(=O)c1ccc(Oc2ccc(OC(F)F)c(-c3nn(C4COC4)cc3NC(=O)c3cnn4cccnc34)c2)cc1 [Example 142, 3-[2-(difluoromethoxy)-5-[4-(dimethylcarbamoyl)phenoxy]phenyl 1-1-(oxetan-3-yl)pyrazol-4-yl]pyrazolo[1,5-a]pyrimidine-3-carboxamide]	22	–
0.97	0.77	Cn1cc(NC(=O)c2cnn3cccnc23)c(-c2cc(Oc3ccnc(CN)c3)ccc2OC(F)F)n1 [Example 40, N-[3-[5-[[2-(aminomethyl)-4-pyridyl]oxy]-2-(difluoromethoxy)phenyl]-1-methyl-pyrazol-4-yl]pyrazolo[1,5-a]pyrimidine-3-carboxamide]	51	–
0.81	0.51	CN1CCCC(O)(Cn2cc(Oc3ccc(OC(F)F)c(-c4nn(C)cc4NC(=O)c4cnn5cccnc45)c3)cn2)CC1 (stereo not drawn) [Example 197, N-[3-[2-(difluoromethoxy)-5-[1-[(4-hydroxy-l-methyl-azepan-4-yl)methyl]pyrazol-4-yl]oxy-phenyl]-1-methyl-pyrazol-4-yl]pyrazolo[1,5-a]pyrimidine-3-carboxamide]	–	130
0.42	0.21	Cc1ccc(Oc2ccc(OC(F)F)c(-c3n[nH]cc3NC(=O)c3cnn4cccnc34)c2)cc1CC(=O)N(C)C [Example 17, N-[3-[2-(difluoromethoxy)-5-[3-[2-(dimethylamino)-2-oxo-ethyl]-4-methyl-phenoxy]phenyl]-1H-pyrazol-4-yl]pyrazolo[1,5-a]pyrimidine-3-carboxamide]	26	–
0.34	0.31	CN(CCO)Cc1cccc(Oc2ccc(OC(F)F)c(-c3nn(C)cc3NC(=O)c3cnn4cccnc34)c2)c1 [Example 22]	22	–
2.1	1.2	CC(C)(C#N)c1ccc(Oc2ccc(OC(F)F)c(-c3n[nH]cc3NC(=O)c3cnn4cccnc34)c2)cc1 [Example 67, N-[3-[5-[4-(1-cyano-1-methyl-ethyl)phenoxy]-2-(difluoromethoxy)phenyl]-1H-pyrazol-4-yl]pyrazolo[1,5-a]pyrimidine-3-carboxamide]	25	–
1.9	0.95	Cn1cc(NC(=O)c2cnn3cccnc23)c(-c2cc(Oc3ccc(CN4CCC[C@@H]4CO)cc3)ccc2OC(F)F)n1 (racemic) [Example 171, N-[3-[2-(difluoromethoxy)-5-[4-[[rac-(2R)-2-(hydroxymethyl)pyrrolidin-1-yl]methyl]phenoxy]phenyl]-1-methyl-pyrazol-4-yl]pyrazolo[1,5-a]pyrimidine-3-carboxamide]	50	–
0.57	0.34	Cn1cc(NC(=O)c2cnn3cccnc23)c(-c2cc(Oc3cnn(C4CNCC4O)c3)ccc2OC(F)F)n1 (stereo not drawn) [Example 177, N-[3-[2-(difluoromethoxy)-5-[1-(4-hydroxypyrrolidin-3-yl)pyrazol-4-yl]oxy-phenyl]-1-methyl-pyrazol-4-yl]pyrazolo[1,5-a]pyrimidine-3-carboxamide]	–	330
3.9	3.6	CNCc1ccnn1-c1cccc(Oc2ccc(OC(F)F)c(-c3nn(C)cc3NC(=O)c3cnn4cccnc34)c2)c1 [Example 66, N-[3-[2-(difluoromethoxy)-5-[3-[5-(methylaminomethyl)pyrazol-1-yl]phenoxy]phenyl]-1-methyl-pyrazol-4-yl]pyrazolo[1,5-a]pyrimidine-3-carboxamide]	130	–
0.25	0.38	CC(N)c1cccc(Oc2ccc(OC(F)F)c(-c3n[nH]cc3NC(=O)c3cnn4cccnc34)c2)c1 (stereo not drawn) [Example 14, N-[3-[5-[3-(1-aminoethyl)phenoxy]-2-(difluoromethoxy)phenyl]-1H-pyrazol-4-yl]pyrazolo[1,5-a]pyrimidine-3-carboxamide]	26	–
0.22	0.19	O=C(Nc1c[nH]nc1-c1cc(Oc2cccc(CNCCO)c2)ccc1OC(F)F)c1cnn2cccnc12 [Example 16, N-[3-[2-(difluoromethoxy)-5-[3-[(2-hydroxyethylamino)methyl]phenoxy]phenyl]-1H-pyrazol-4-yl]pyrazolo[1,5-a]pyrimidine-3-carboxamide]	170	–
0.25	0.16	Cn1cc(NC(=O)c2cnn3cccnc23)c(-c2cc(Oc3cnn(C4CCC4O)c3)ccc2OC(F)F)n1 (stereo not drawn) [Example 135, N-[3-[2-(difluoromethoxy)-5-[1-(2-hydroxycyc1obutyl)pyrazol-4-yl]oxy-phenyl]-1-methyl-pyrazol-4-yl]pyrazolo[1,5-a]pyrimidine-3-carboxamide]	–	15
